This note sets out measurements from ChEMBL document CHEMBL3856280, “Targeting the HSP60/10 chaperonin systems of Trypanosoma brucei as a strategy for treating African sleeping sickness” (Bioorg Med Chem Lett, 2016).

In data set [1] the test system is Trypanosoma brucei brucei. Description: Antitrypanosomal activity against Trypanosoma brucei brucei Lister 427 VSG 221 [TetR T7RNAP] transgenic bloodstream forms assessed as reduction in cell viability after 48 hrs by alamar blue assay. Format: functional. The following applies: Lister 427 VSG 221, 48 h. A general note: Resazurin is reduced to fluorescent resorufin, in cell work by metabolically active cells.

The target of data set [2] is T1, E. coli GroEL/ES (Escherichia coli, UniProt P0A6F5). Description: Inhibition of Escherichia coli GroEL/GroES expressed in Escherichia coli DH5alpha/BL21 (DE3) assessed as inhibition of denatured MDH refolding preincubated for 10 mins followed by ATP addition measured after 20 to 40 mins by fluorescence based assay.
T1 sequence (P0A6F5 whole entry, looked up): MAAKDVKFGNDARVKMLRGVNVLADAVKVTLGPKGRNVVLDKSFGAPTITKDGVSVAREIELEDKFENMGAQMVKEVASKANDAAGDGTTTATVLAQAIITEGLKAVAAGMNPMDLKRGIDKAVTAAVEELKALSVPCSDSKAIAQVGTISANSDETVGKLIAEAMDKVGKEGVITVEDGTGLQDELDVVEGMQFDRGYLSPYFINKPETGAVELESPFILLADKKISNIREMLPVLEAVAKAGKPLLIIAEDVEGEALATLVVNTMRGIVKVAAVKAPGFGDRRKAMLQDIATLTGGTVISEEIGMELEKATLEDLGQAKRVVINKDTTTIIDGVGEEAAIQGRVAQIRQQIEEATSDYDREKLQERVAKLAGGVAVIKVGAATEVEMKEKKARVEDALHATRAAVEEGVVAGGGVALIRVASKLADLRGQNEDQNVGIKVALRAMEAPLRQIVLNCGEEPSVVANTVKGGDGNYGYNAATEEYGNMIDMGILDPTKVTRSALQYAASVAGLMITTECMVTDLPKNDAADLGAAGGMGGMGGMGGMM
In data set [3] the target is T2, HSP60/HSP10 (Homo sapiens, UniProt P10809). Description: Inhibition of human mitochondrial HSP60/HSP10 expressed in Escherichia coli DH5alpha/BL21 (DE3) assessed as inhibition of denatured MDH refolding preincubated for 10 mins followed by ATP addition measured after 40 to 60 mins by fluorescence based assay.
T2 sequence (P10809 whole entry): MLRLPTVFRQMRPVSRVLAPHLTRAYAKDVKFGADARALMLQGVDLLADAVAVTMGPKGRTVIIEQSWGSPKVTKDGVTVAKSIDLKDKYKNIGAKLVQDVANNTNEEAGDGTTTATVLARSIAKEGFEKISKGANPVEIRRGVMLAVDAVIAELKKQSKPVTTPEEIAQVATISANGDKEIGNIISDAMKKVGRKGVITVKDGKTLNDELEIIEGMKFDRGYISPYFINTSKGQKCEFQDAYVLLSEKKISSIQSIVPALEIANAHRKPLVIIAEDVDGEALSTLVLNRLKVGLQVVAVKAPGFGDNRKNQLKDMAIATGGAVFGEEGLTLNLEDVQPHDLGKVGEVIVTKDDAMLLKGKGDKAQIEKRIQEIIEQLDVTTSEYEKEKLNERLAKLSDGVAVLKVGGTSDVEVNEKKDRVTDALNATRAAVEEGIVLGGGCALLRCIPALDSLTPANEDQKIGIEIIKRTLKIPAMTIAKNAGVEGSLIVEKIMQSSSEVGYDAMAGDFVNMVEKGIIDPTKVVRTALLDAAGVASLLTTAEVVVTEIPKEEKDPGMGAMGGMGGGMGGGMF
T2 sequence (P61604 whole entry, further chain): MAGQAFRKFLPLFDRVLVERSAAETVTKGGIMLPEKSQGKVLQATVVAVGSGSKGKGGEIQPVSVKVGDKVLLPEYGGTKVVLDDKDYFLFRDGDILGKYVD
The target in data set [4] is T1, E. coli GroEL/ES. Put plainly: Inhibition of Escherichia coli GroEL/GroES-ATPase activity expressed in Escherichia coli DH5alpha/BL21 (DE3) assessed as inhibition of denatured MDH refolding preincubated for 10 mins followed by ATP addition measured after 20 to 40 mins by malachite green dye based fluorescence assay.
Data set [5] concerns the target T2, HSP60/HSP10. Description: Inhibition of human mitochondrial HSP60/HSP10-ATPase activity expressed in Escherichia coli DH5alpha/BL21 (DE3) assessed as inhibition of denatured MDH refolding preincubated for 10 mins followed by ATP addition measured after 40 to 60 mins by malachite green dye based fluorescence assay.
The nature of data set [6]: Cytotoxicity against human THLE3 cells assessed as reduction in cell viability after 48 hrs by alamar blue assay. Format: toxicity, cell-based.
A short description of data set [7]: Cytotoxicity against HEK293 cells assessed as reduction in cell viability after 48 hrs by alamar blue assay. The following applies: human. Type of data set: toxicity, cell-based.
Data set [8] can be described thus: Inhibition of pig heart native MDH reporter reaction after 20 to 40 mins by fluorescence based assay. Also on record: species or system Sus scrofa.

Broadly, the EC50 is the concentration needed to bring the measured effect to its halfway point. In general, IC50 refers to the concentration needed to halve the response being measured. In the case of `Cc1cccc(S(=O)(=O)Nc2ccc(-c3nc4cc(NS(=O)(=O)c5cccc(C)c5)ccc4o3)cc2)c1`, in data set [1], the EC50 worked out at 4.9 µM. The IC50 at E. coli GroEL/ES [2] is 35 µM; on HSP60/HSP10 [3], over 100 µM; at E. coli GroEL/ES [4], over 250 µM; at HSP60/HSP10 [5] it was over 250 µM; in data set [8] it was over 63 µM. In addition, the EC50 at 48 h in data set [6] was 18 µM; in data set [7] it was 65 µM.

Take `O=S(=O)(Nc1ccc(-c2nc3cc(NS(=O)(=O)c4ccccc4C(F)(F)F)ccc3o2)cc1)c1ccccc1C(F)(F)F`: the EC50 in data set [1] turned out to be 28 µM. For the same molecule, the half-maximal inhibitory concentration (IC50) at E. coli GroEL/ES [2] was 25 µM; at HSP60/HSP10 [3], over 100 µM; on E. coli GroEL/ES [4] it was 21 µM; at HSP60/HSP10 [5], over 250 µM; in data set [8], over 63 µM. For the same molecule, the figures for the EC50 at 48 h in data set [6] and in data set [7] were 50 µM and 66 µM, respectively.

Take `O=S(=O)(Nc1ccc(-c2nc3cc(NS(=O)(=O)c4ccc(C(F)(F)F)cc4)ccc3o2)cc1)c1ccc(C(F)(F)F)cc1`: the EC50 in data set [1] came out at 4.1 µM. Further, the IC50 at E. coli GroEL/ES [2] was 35 µM; at HSP60/HSP10 [3] it was 61 µM; on E. coli GroEL/ES [4] it was over 250 µM; at HSP60/HSP10 [5], over 250 µM; in data set [8], over 63 µM. Moreover, the EC50 at 48 h in data set [6] is 21 µM; in data set [7] it was over 100 µM.

For `COc1cccc(S(=O)(=O)Nc2ccc(-c3nc4cc(NS(=O)(=O)c5cccc(OC)c5)ccc4o3)cc2)c1`, the EC50 in data set [1] was 5.1 µM. The IC50 on E. coli GroEL/ES [2] is 48 µM; on HSP60/HSP10 [3] it was over 100 µM; on E. coli GroEL/ES [4], over 250 µM; at HSP60/HSP10 [5], over 250 µM; in data set [8], over 63 µM. Also, the EC50 at 48 h in data set [6] was 15 µM; in data set [7], 28 µM.

As for `O=[N+]([O-])c1cccc(S(=O)(=O)Nc2ccc(-c3nc4cc(NS(=O)(=O)c5cccc([N+](=O)[O-])c5)ccc4o3)cc2)c1`, in data set [1], the EC50 was determined as 11 µM. The IC50 on E. coli GroEL/ES [2] was 11 µM; at HSP60/HSP10 [3] it was 60 µM; at E. coli GroEL/ES [4], over 250 µM; at HSP60/HSP10 [5], over 250 µM; in data set [8], over 63 µM. The EC50 at 48 h came out at 37 µM in data set [6] and 46 µM in data set [7].

In the case of `N#Cc1cccc(S(=O)(=O)Nc2ccc(-c3nc4cc(NS(=O)(=O)c5cccc(C#N)c5)ccc4o3)cc2)c1`, the EC50 in data set [1] turned out to be 39 µM. The 50% inhibitory concentration (IC50) on E. coli GroEL/ES [2] was 7.6 µM; on HSP60/HSP10 [3] it was 91 µM; at E. coli GroEL/ES [4], 4.1 µM; on HSP60/HSP10 [5] it was over 250 µM; in data set [8], over 63 µM. Further, the EC50 at 48 h in data set [6] is 91 µM; in data set [7], 45 µM.

Take `O=S(=O)(Nc1ccc(-c2nc3cc(NS(=O)(=O)c4cccc(O)c4)ccc3o2)cc1)c1cccc(O)c1`: the EC50 in data set [1] came to 8.9 µM. Moreover, the IC50 at E. coli GroEL/ES [2] is 0.9 µM; on HSP60/HSP10 [3], 19 µM; on E. coli GroEL/ES [4], 0.79 µM; on HSP60/HSP10 [5] it was 61 µM; in data set [8], 47 µM. In addition, the EC50 at 48 h is 37 µM in data set [6] and 36 µM in data set [7].

On to `Nc1ccc(S(=O)(=O)Nc2ccc(-c3nc4cc(NS(=O)(=O)c5ccc(N)cc5)ccc4o3)cc2)cc1`, for which the EC50 in data set [1] is 22 µM. In addition, the IC50 was 1.4 µM on E. coli GroEL/ES [2]; 68 µM on HSP60/HSP10 [3]; 1.7 µM on E. coli GroEL/ES [4]; 224 µM on HSP60/HSP10 [5]; over 63 µM in data set [8]. Also, the EC50 at 48 h in data set [6] was 38 µM; in data set [7], 59 µM.

With `COc1ccc(S(=O)(=O)Nc2ccc(-c3nc4cc(NS(=O)(=O)c5ccc(OC)cc5)ccc4o3)cc2)cc1`, in data set [1], the EC50 stood at 3.3 µM. The IC50 is 36 µM on E. coli GroEL/ES [2]; over 100 µM at HSP60/HSP10 [3]; 84 µM at E. coli GroEL/ES [4]; over 250 µM on HSP60/HSP10 [5]; over 63 µM in data set [8]. Besides, the concentration for a half-maximal effect (EC50) at 48 h is over 100 µM in data set [6] and 88 µM in data set [7].

With `Cc1ccccc1S(=O)(=O)Nc1ccc(-c2nc3cc(NS(=O)(=O)c4ccccc4C)ccc3o2)cc1`, the EC50 in data set [1] was determined as 1.8 µM. The IC50 is over 100 µM at E. coli GroEL/ES [2]; over 100 µM at HSP60/HSP10 [3]; 194 µM on E. coli GroEL/ES [4]; over 250 µM at HSP60/HSP10 [5]; over 63 µM in data set [8]. The EC50 at 48 h in data set [6] was 17 µM; in data set [7] it was 25 µM.

With `Nc1ccccc1S(=O)(=O)Nc1ccc(-c2nc3cc(NS(=O)(=O)c4ccccc4N)ccc3o2)cc1`, the EC50 in data set [1] was 3.3 µM. The IC50 on E. coli GroEL/ES [2] was 10 µM; at HSP60/HSP10 [3], over 100 µM; at E. coli GroEL/ES [4], over 250 µM; on HSP60/HSP10 [5] it was over 250 µM; in data set [8] it was over 63 µM. Also, the results for the EC50 at 48 h in data set [6] and in data set [7] were 18 µM and 14 µM, respectively.

`O=[N+]([O-])c1ccc(S(=O)(=O)Nc2ccc(-c3nc4cc(NS(=O)(=O)c5ccc([N+](=O)[O-])cc5)ccc4o3)cc2)cc1`: in data set [1], the half-maximal effective concentration (EC50) is 15 µM. Also, the IC50 on E. coli GroEL/ES [2] was 26 µM; at HSP60/HSP10 [3] it was 65 µM; at E. coli GroEL/ES [4] it was over 250 µM; at HSP60/HSP10 [5] it was over 250 µM; in data set [8], over 63 µM. Moreover, the values for the EC50 at 48 h in data set [6] and in data set [7] were 36 µM and 59 µM, respectively.

In the case of `Nc1cccc(S(=O)(=O)Nc2ccc(-c3nc4cc(NS(=O)(=O)c5cccc(N)c5)ccc4o3)cc2)c1`, the EC50 in data set [1] is 15 µM. In addition, the IC50 was 2.8 µM on E. coli GroEL/ES [2]; 87 µM at HSP60/HSP10 [3]; 9.6 µM on E. coli GroEL/ES [4]; 127 µM at HSP60/HSP10 [5]; over 63 µM in data set [8]. Further, the EC50 at 48 h stood at 30 µM in data set [6] and 58 µM in data set [7].

With `O=[N+]([O-])c1ccccc1S(=O)(=O)Nc1ccc(-c2nc3cc(NS(=O)(=O)c4ccccc4[N+](=O)[O-])ccc3o2)cc1`, the EC50 in data set [1] was over 42 µM. The concentration for half-maximal inhibition (IC50) on E. coli GroEL/ES [2] was 3.6 µM; at HSP60/HSP10 [3], 75 µM; on E. coli GroEL/ES [4] it was 3.1 µM; on HSP60/HSP10 [5] it was 194 µM; in data set [8] it was over 63 µM. Besides, the figures for the EC50 at 48 h in data set [6] and in data set [7] were 93 µM and 60 µM, respectively.

For the molecule `O=S(=O)(Nc1ccc(-c2nc3cc(NS(=O)(=O)c4cccc(C(F)(F)F)c4)ccc3o2)cc1)c1cccc(C(F)(F)F)c1`, the EC50 in data set [1] is 4.8 µM. In addition, the 50% inhibitory concentration (IC50) at E. coli GroEL/ES [2] is 15 µM; on HSP60/HSP10 [3], over 100 µM; on E. coli GroEL/ES [4] it was 216 µM; on HSP60/HSP10 [5] it was over 250 µM; in data set [8], over 63 µM. Further, the EC50 at 48 h in data set [6] is 19 µM; in data set [7], 15 µM.

Regarding `COc1ccccc1S(=O)(=O)Nc1ccc(-c2nc3cc(NS(=O)(=O)c4ccccc4OC)ccc3o2)cc1`, the EC50 in data set [1] turned out to be 2.7 µM. In addition, the IC50 at E. coli GroEL/ES [2] was 69 µM; on HSP60/HSP10 [3] it was over 100 µM; at E. coli GroEL/ES [4], over 250 µM; on HSP60/HSP10 [5], over 250 µM; in data set [8] it was over 63 µM. Further, the EC50 at 48 h in data set [6] was over 100 µM; in data set [7] it was 79 µM.

Consider `O=S(=O)(Nc1ccc(-c2nc3cc(NS(=O)(=O)c4ccc(O)cc4)ccc3o2)cc1)c1ccc(O)cc1`, for which the EC50 in data set [1] was found to be 21 µM. Also, the IC50 on E. coli GroEL/ES [2] stood at 0.34 µM; at HSP60/HSP10 [3], 11 µM; at E. coli GroEL/ES [4] it was 0.31 µM; on HSP60/HSP10 [5], 59 µM; in data set [8], 50 µM. Further, the EC50 at 48 h stood at 41 µM in data set [6] and 38 µM in data set [7].
